In PubChem BioAssay AID248 (DTP/NCI, 2004):
Toxic doses and inconclusive results are not listed. Rule as the data show it: active = T/C of 150% or more; inactive = T/C below 125%.

Test system: L1210 leukemia ip in BDF1 mice, survival T/C
Test: NCI In Vivo Anticancer Drug Screen. Data for tumor model L1210 Leukemia (intraperitoneal) in B6D2F1 (BDF1) mice
Conditions: endpoint: mean survival time, higher = longer survival
Method in brief: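 Tumor was transplanted into mice, which were then dosed with test compound or vehicle alone. Survival was recorded for each group, and the treated figure was expressed relative to the control figure.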

[1] = dose: 100.0 mg/kg/injection, schedule: Q04DX002 (ip), vehicle: saline with Tween-80
[2] = dose: 200.0 mg/kg/injection, schedule: Q04DX002 (ip), vehicle: saline with Tween-80
[3] = dose: 50.0 mg/kg/injection, schedule: Q01DX001 (ip), vehicle: carboxymethylcellulose (CMC)
[4] = dose: 100.0 mg/kg/injection, schedule: Q01DX001 (ip), vehicle: carboxymethylcellulose (CMC)
[5] = dose: 100.0 mg/kg/injection, schedule: Q01DX009 (ip), vehicle: Klucel (hydroxypropylcellulose) (HPC)
[6] = dose: 100.0 mg/kg/injection, schedule: Q04DX003 (ip), vehicle: Klucel (hydroxypropylcellulose) (HPC)
[7] = dose: 200.0 mg/kg/injection, schedule: Q01DX001 (ip), vehicle: carboxymethylcellulose (CMC)
[8] = dose: 200.0 mg/kg/injection, schedule: Q04DX003 (ip), vehicle: Klucel (hydroxypropylcellulose) (HPC)
[9] = dose: 400.0 mg/kg/injection, schedule: Q04DX003 (ip), vehicle: Klucel (hydroxypropylcellulose) (HPC)
[10] = dose: 100.0 mg/kg/injection, schedule: Q01DX001 (ip), vehicle: other
[11] = dose: 200.0 mg/kg/injection, schedule: Q01DX001 (ip), vehicle: other
[12] = dose: 400.0 mg/kg/injection, schedule: Q01DX001 (ip), vehicle: other
[13] = dose: 100.0 mg/kg/injection, schedule: Q04DX002 (ip), vehicle: saline
[14] = dose: 200.0 mg/kg/injection, schedule: Q04DX002 (ip), vehicle: saline
[15] = dose: 400.0 mg/kg/injection, schedule: Q04DX002 (ip), vehicle: saline
[16] = dose: 100.0 mg/kg/injection, schedule: Q01DX001 (ip), vehicle: saline
[17] = dose: 200.0 mg/kg/injection, schedule: Q01DX001 (ip), vehicle: saline

Measured: T/C

O=C(S)c1ccccc1.[Pb]
inactive: [1] 87 % of control | [2] 108 % of control

CCN(CC)CCCC(C)NC(=O)c1ccc(Cl)nc1 (stereo not given)
inactive: dose: 50.0 mg/kg/injection, schedule: Q01DX009 (ip), vehicle: saline with Tween-80 105 % of control | dose: 100.0 mg/kg/injection, schedule: Q01DX009 (ip), vehicle: saline with Tween-80 103 % of control | dose: 200.0 mg/kg/injection, schedule: Q01DX009 (ip), vehicle: saline with Tween-80 95 % of control

CC(=O)Nc1ccc(Br)cc1
inactive: [3] 92 % of control | [4] 93 % of control | [5] 103 % of control | [6] 98 % of control | [7] 93 % of control | dose: 200.0 mg/kg/injection, schedule: Q01DX009 (ip), vehicle: Klucel (hydroxypropylcellulose) (HPC) 113 % of control | [8] 104 % of control | [9] 106 % of control

CCCCCCCCC1SC1CCCCCCCC(=O)NCCCOCCOCCOCC (stereo not given)
inactive: [6] 96 % of control | [8] 100 % of control | [9] 96 % of control

COc1cc(NC2=C(Cl)C(=O)C(Nc3cc(OC)c(OC)c(OC)c3)=C(Cl)C2=O)cc(OC)c1OC
inactive: [6] 119 % of control | [8] 95 % of control | [9] 98 % of control

CSc1nnc2scnn12
inactive: [3] 104 % of control | [4] 104 % of control | [7] 101 % of control

Nc1nc2ncc(=O)[nH]c2c(=O)[nH]1
inactive: dose: 50.0 mg/kg/injection, schedule: Q01DX009 (ip), vehicle: saline 106 % of control | dose: 50.0 mg/kg/injection, schedule: Q04DX003 (ip), vehicle: saline 103 % of control | dose: 100.0 mg/kg/injection, schedule: Q01DX009 (ip), vehicle: saline 101 % of control | dose: 100.0 mg/kg/injection, schedule: Q04DX003 (ip), vehicle: saline 100 % of control | dose: 200.0 mg/kg/injection, schedule: Q01DX009 (ip), vehicle: saline 87 % of control | dose: 200.0 mg/kg/injection, schedule: Q04DX003 (ip), vehicle: saline 106 % of control | dose: 400.0 mg/kg/injection, schedule: Q04DX003 (ip), vehicle: saline 122 % of control

O=C1CCN2CCCc3cccc1c32
inactive: [10] 100 % of control | [11] 97 % of control | [12] 102 % of control

CCCCOCC(O)CNCCN (stereo not given)
inactive: [13] 108 % of control | [14] 90 % of control | [15] 104 % of control

O=C(CCCl)Oc1ccc(Cl)cc1
inactive: dose: 100.0 mg/kg/injection, schedule: Q04DX003 (ip), vehicle: saline with Tween-80 92 % of control | dose: 200.0 mg/kg/injection, schedule: Q04DX003 (ip), vehicle: saline with Tween-80 93 % of control | dose: 400.0 mg/kg/injection, schedule: Q04DX003 (ip), vehicle: saline with Tween-80 100 % of control

CCCCCCCCCCCCCCOc1ccc2ccccc2c1
inactive: [6] 94 % of control | [8] 96 % of control | [9] 91 % of control

CN(C)c1ccc(C=Nc2cccc(Cl)c2)cc1
inactive: [6] 91 % of control | [8] 93 % of control | [9] 91 % of control

CCCC(=O)CCCCNC(=O)c1ccccc1
inactive: [1] 99 % of control | [2] 89 % of control

Nc1cc(S(N)(=O)=O)ccc1Br
inactive: dose: 100.0 mg/kg/injection, schedule: Q04DX003 (ip), vehicle: water 95 % of control | dose: 200.0 mg/kg/injection, schedule: Q04DX003 (ip), vehicle: water 97 % of control | dose: 400.0 mg/kg/injection, schedule: Q04DX003 (ip), vehicle: water 92 % of control

CCN(CC)CCCC(C)Nc1c(C)cnc2cc(Cl)c(C)cc12 (stereo not given)
inactive: dose: 50.0 mg/kg/injection, schedule: Q01DX001 (ip), vehicle: saline 112 % of control | [16] 95 % of control | [17] 101 % of control

CCC1=NS(=O)(=O)c2c(ncn2C)N1
inactive: dose: 100.0 mg/kg/injection, schedule: Q04DX003 (ip), vehicle: other 97 % of control | dose: 200.0 mg/kg/injection, schedule: Q04DX003 (ip), vehicle: other 97 % of control | dose: 400.0 mg/kg/injection, schedule: Q04DX003 (ip), vehicle: other 103 % of control

COC(=O)c1ccc(SC(=O)N(C)C)cc1
inactive: [6] 91 % of control | [8] 96 % of control | [9] 91 % of control

C/C=C/C=C\COC(=O)C(C)C
inactive: [13] 103 % of control | [14] 96 % of control | [15] 114 % of control

C#C[C@]1(O)CC[C@H]2[C@@H]3CCc4cc(O)ccc4[C@H]3CC[C@@]21C
inactive: dose: 62.5 mg/kg/injection, schedule: Q04DX003 (sc), vehicle: steriod suspending solution 96 % of control | dose: 125.0 mg/kg/injection, schedule: Q04DX003 (sc), vehicle: steriod suspending solution 100 % of control | dose: 250.0 mg/kg/injection, schedule: Q04DX003 (sc), vehicle: steriod suspending solution 97 % of control | dose: 500.0 mg/kg/injection, schedule: Q04DX003 (sc), vehicle: steriod suspending solution 99 % of control

Cc1cc([N+](=O)[O-])c(Cl)c([N+](=O)[O-])c1
inactive: [4] 91 % of control | [7] 89 % of control | dose: 400.0 mg/kg/injection, schedule: Q01DX001 (ip), vehicle: carboxymethylcellulose (CMC) 100 % of control

CC(=O)Nc1cc(NC(C)=O)cc(N(CCO)CCO)c1
inactive: dose: 25.0 mg/kg/injection, schedule: Q01DX009 (ip), vehicle: water 97 % of control | dose: 50.0 mg/kg/injection, schedule: Q01DX009 (ip), vehicle: water 100 % of control | dose: 100.0 mg/kg/injection, schedule: Q01DX009 (ip), vehicle: water 106 % of control | dose: 400.0 mg/kg/injection, schedule: Q01DX009 (ip), vehicle: water 106 % of control

CCCCN1C(=S)NC(C)(C)C=C1C
inactive: dose: 12.5 mg/kg/injection, schedule: Q04DX003 (ip), vehicle: saline with Tween-80 95 % of control | dose: 25.0 mg/kg/injection, schedule: Q04DX003 (ip), vehicle: saline with Tween-80 98 % of control | dose: 50.0 mg/kg/injection, schedule: Q04DX003 (ip), vehicle: saline with Tween-80 96 % of control

CC(C)(C)N1OC1c1cccc(Cl)c1 (stereo not given)
inactive: [10] 95 % of control | [6] 98 % of control | [11] 94 % of control | [8] 93 % of control | [12] 97 % of control | [9] 101 % of control

CC(=O)OCC1OC(n2c(O)c(/C=C3\C=Nc4ccccc43)sc2=S)C(OC(C)=O)C(OC(C)=O)C1OC(C)=O (stereo not given)
inactive: dose: 12.5 mg/kg/injection, schedule: Q01DX005 (ip), vehicle: other 94 % of control | dose: 25.0 mg/kg/injection, schedule: Q01DX005 (ip), vehicle: other 91 % of control | dose: 50.0 mg/kg/injection, schedule: Q01DX005 (ip), vehicle: other 92 % of control | dose: 100.0 mg/kg/injection, schedule: Q01DX005 (ip), vehicle: other 111 % of control | dose: 200.0 mg/kg/injection, schedule: Q01DX005 (ip), vehicle: other 94 % of control

O=C(Nc1ccc(C2=NCCCN2)cc1)N1CCN(C(=O)Nc2ccc(C3=NCCCN3)cc2)CC1
inactive: dose: 10.0 mg/kg/injection, schedule: Q01DX Z (ip), vehicle: water 106 % of control | dose: 20.0 mg/kg/injection, schedule: Q01DX Z (ip), vehicle: water 120 % of control

NCCCNCCO
inactive: [16] 102 % of control | [17] 111 % of control | dose: 400.0 mg/kg/injection, schedule: Q01DX001 (ip), vehicle: saline 105 % of control

NC(=O)C(N)CO (stereo not given)
inactive: [13] 96 % of control | [14] 104 % of control | [15] 111 % of control

c1ccc(C2=C(c3ccccc3)NC(c3ccccc3)N2)cc1
inactive: dose: 12.5 mg/kg/injection, schedule: Q04DX003 (ip), vehicle: Klucel (hydroxypropylcellulose) (HPC) 102 % of control | dose: 25.0 mg/kg/injection, schedule: Q04DX003 (ip), vehicle: Klucel (hydroxypropylcellulose) (HPC) 100 % of control | dose: 50.0 mg/kg/injection, schedule: Q04DX003 (ip), vehicle: Klucel (hydroxypropylcellulose) (HPC) 98 % of control | [6] 96 % of control

Cc1cccc(C)c1N1C(=O)C2C(C1=O)C1(Cl)C(Cl)=C(Cl)C2(Cl)C1(Cl)Cl (stereo not given)
inactive: dose: 50.0 mg/kg/injection, schedule: Q01DX009 (ip), vehicle: Klucel (hydroxypropylcellulose) (HPC) 95 % of control | [5] 101 % of control | [6] 114 % of control | [8] 101 % of control

c1ccc2cc3nc4c(nc3cc2c1)[nH]c1ccccc14
inactive: [10] 87 % of control | [11] 95 % of control | [12] 95 % of control
